Laboratory results published in patent US9586985B2, “Organic compounds as proantigens for natural killer T cells” (Callaghan Innovation Research Limited, priority 2012, dated 2017).

Tests used:
[1] = tested on: cytokines IL-12p70, IL-4 and IFN-g; experiment: Cytokine release into serum after injection (cytokine bead array); format: in vivo, C57BL/6 mice
Protocol: (§1) Groups of C57BL/6 mice (n=3 per group) are injected intravenously with 200 ng of the indicated compounds, and then the serum is collected at the indicated times for analysis of cytokine levels by cytokine bead array technology.
as §1, with “ng of α-GalCer or an equivalent molar amount” for “ng”, “technology. (Compound CN158A1b=CN158 formulated in accordance with Example 15; Compound CN158A=CN158 in water.)” for “technology.”
Blood is collected from the lateral tail vein at different time intervals after glycolipid administration. Serum is collected after blood has clotted, and levels of cytokines IL-12p70, IL-4 and IFN-g are assessed by cytokine bead array technology (Bioplex, Biorad), according to the manufacturer's instructions.

B16.OVA melanoma cells = experiment: Anti-tumour activity against subcutaneous B16.OVA tumours, given with OVA protein; format: in vivo, C57BL/6 mice; settings: i.v. with 200 μg OVA protein seven days after tumour challenge
Protocol: Progression of subcutaneous B16.OVA tumours is monitored in animals that are treated seven days after tumour challenge with intravenous OVA protein together with the indicated compounds, or treated with PBS. The mean tumour sizes per group (n=5)±SEM are shown.
Progression of subcutaneous B16.OVA tumours is monitored in animals that are treated seven days after tumour challenge with intravenous OVA protein together with the indicated compounds, or treated with PBS. The mean tumour sizes per group (n=5)±SEM are shown. […] (Compound CN158A=CN158 in water.)
Groups of C57BL/6 mice (n=5) receive a subcutaneous injection into the flank of 1×10^5 B16.OVA melanoma cells, which express a cDNA encoding the chicken ovalbumin (OVA) sequence. The different groups are treated 7 days later, when tumours are fully engrafted, by intravenous injection of one of the following; 200 μg OVA protein together with 200 ng α-GalCer, 200 μg OVA protein together with 200 ng of a compound of the invention, or PBS. Mice are monitored for tumour growth every 3-4 days, and tumour size for each group is calculated as the mean of the products of bisecting diameters (±SEM). Measurements are terminated for each group when the first animal develops a tumour exceeding 200 mm^2.

[2] = HPLC-ESI-MSMS quantification of α-GalCer in test samples; format: physicochemical; settings: freshly reconstituted formulated sample; estimated maximum level
Protocol: Quantification of the amount of α-GalCer in various test samples of compounds of the invention is made by HPLC-ESI-MSMS analysis using a Waters 2795 HPLC and a Waters Q-TOF Premier™ Tandem Mass Spectrometer. The chromatography used a Phenomenex Kinetex C18 […] 3.0×50 mm column eluting with isocratic methanol containing 10 mM ammonium formate+0.5% formic acid at a flow rate of 0.2 mL/min. α-GalCer is monitored by selective reactant monitoring of 858.7 to 696.7 Da. The estimate of amount of α-GalCer is made by comparison of ion count integrals to a standard curve run on the same day or by comparison to test samples spiked with a known amount of α-GalCer.
The level of α-GalCer is determined on freshly reconstituted formulated samples unless otherwise stated. The estimated maximum level of α-GalCer for key compounds is given below.

human NKT cells = experiment: Proliferation of human NKT cells in PBMC culture; format: cell-based; settings: 7 days culture with IL-2, one donor, FIG. 6
Protocol: PBMC from one donor are cultured for 7 days with different doses of the indicated compounds in the presence of IL-2, and then the percentages of NKT cells in the final cultures determined by flow cytometry with fluorescent α-GalCer-loaded CD1d tetramers and anti-CD3. Data are expressed as percentage of NKT cells (α-GalCer/CD1d tetramer and anti-CD3-binding cells) of total T cells (all anti-CD3-binding cells).
Peripheral blood is drawn into heparinized tubes, diluted 1:1 in PBS, and layered over a sodium diatrizoate and polysaccharide solution (Lymphoprep; Axis-Shield, Oslo, Norway) before centrifugation at 800×g for 25 minutes at room temperature to collect the peripheral blood mononuclear cell (PBMC) fraction, which contains NKT cells. To assess proliferation of NKT cells, PBMC (2×10^5 per well) are cultured at 37° C. in Iscove's Modified Dulbecco's Medium with 5% human AB serum and the indicated concentrations of α-GalCer, or the compounds of the invention, with recombinant human IL-2 50 U/mL (Chiron Corporation, Emeryville, Calif.) added after 24 hours. After 7 days of culture, the cells are analysed by flow cytometry, using fluorescent soluble CD1d tetramers that have been loaded with α-GalCer to identify the NKT cells. […]

CCCCCCCCCCCCCCCCCCCCCCCCCC(=O)O[C@H](CCCCCCCCCCCCCC)[C@@H](O)[C@H](CO[C@H]1O[C@H](CO)[C@H](O)[C@H](O)[C@H]1O)NC(=O)OCOC(=O)C(C)(C)C [CN145, (2S,3S,4R)-1-O-α-D-Galactopyranosyl-4-O-hexacosanoyl-2-(pivaloyloxymethoxycarbonylamino) octadecane-1,3,4-triol]
cytokine profile in vivo compared to α-GalCer ([1]; 200 ng i.v. or molar equivalent, FIGS. 3 and 8): different cytokine profiles
course of IL-12p70 level in serum ([1]; 200 ng i.v., FIG. 3): still increasing through 6 to 12 h
ratio of IFN-γ to IL-4 in serum compared to α-GalCer ([1]; 200 ng i.v., FIG. 3): higher ratio of IFN-γ to IL-4 than that of α-GalCer
overall levels of systemic cytokine production ([1]; 200 ng α-GalCer or equivalent i.v., FIGS. 3 and 8): not as potent as α-GalCer in terms of overall levels of cytokine production
anti-tumour activity: growth of established B16.OVA tumours (B16.OVA melanoma cells): equally beneficial in promoting immune responses that suppress growth of established tumours
Max α-GalCer (ppm) [2]: 40 ppm
Max α-GalCer/injection [2]: 0.008 ng
expansion of human NKT cells from PBMC (human NKT cells): able to induce the expansion of human NKT cells
